Among the test systems are UO-31; A498; IGROV-1; CCRF-CEM; Hs-578T; SR; M14; CAKI-1; MDA-N; HOP-62; UACC-62; SNB-19; PC-3; NCI/ADR-RES; KM12; HCT-116; HT-29; HCT-15; Malme-3M; TK-10.
Holding throughout (assay): inhibition of tumour cell growth, NCI panel, 48 h

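Each compound was tested at five concentrations against cells in 96-well plates for 48 hours. Abbreviation: GI50, concentration required for 50% inhibition of growth.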 Activity calls are given as the source filed them. No stated cut-off is given here; in the data, active = GI50 up to about 1.1 µM and inactive = higher.

Take `O=C(NCCCCCCNC(=O)n1cc(F)c(=O)[nH]c1=O)NCCCOCCOCCOCCOCCOCCOCCOCCOCCOCCOCCOCCOCCOCCOCCOCCOCCOCCOCCOCCOCCOCCCNC(=O)C(O)C(O)C(OC1OC(CO)C(O)C(O)C1O)C(O)CO` (centres undefined): the GI50 with UO-31 is 13.4 µM (inactive); in the assay on A498, 18.6 µM (inactive); in the assay with IGROV-1, 33.7 µM (inactive); in the assay with CCRF-CEM it was > 83.8 µM (inactive); in the assay on Hs-578T, 69.2 µM (inactive); in the assay with SR, 16 µM (inactive). Further, the GI50 was 67.5 µM (inactive) in the assay with M14; 70 µM (inactive) in the assay with CAKI-1; 10 µM (inactive) in the assay on MDA-N; 20.6 µM (inactive) in the assay with HOP-62; 27.9 µM (inactive) in the assay on UACC-62; 88.3 µM (inactive) in the assay on SNB-19. Besides, the GI50 was 55.2 µM (inactive) with PC-3; 47.2 µM (inactive) in the assay on NCI/ADR-RES; 19.6 µM (inactive) in the assay on KM12; 9.16 µM (inactive) in the assay on HCT-116; 11 µM (inactive) with HT-29; 17.5 µM with HCT-15. Besides, the results for the GI50 in the assay with Malme-3M and in the assay on TK-10 were 35.8 µM (inactive) and > 100 µM (inactive), respectively.
As for `Cn1c(N/N=C/c2ccc(Cl)cc2)nc(-c2ccc(Cl)cc2)c(C#N)c1=O`, the GI50 in the assay on UO-31 was 16 µM (inactive); in the assay with A498, 32.1 µM (inactive); in the assay on IGROV-1 it was 6.73 µM (inactive); in the assay on CCRF-CEM it was 25.4 µM (inactive); in the assay with Hs-578T it was 30.3 µM (inactive); in the assay on SR, 2.26 µM (inactive). Also, the GI50 with M14 is 20 µM (inactive); in the assay with CAKI-1, 47 µM (inactive); in the assay on MDA-N, 53.2 µM (inactive); in the assay with HOP-62 it was 12 µM (inactive); with UACC-62 it was 22 µM (inactive); with SNB-19, > 100 µM (inactive). Further, the GI50 with PC-3 was 26.8 µM (inactive); in the assay with NCI/ADR-RES it was > 100 µM (inactive); in the assay on KM12 it was 22.6 µM (inactive); in the assay with HCT-116, 13.5 µM (inactive); in the assay on HT-29, 41.1 µM (inactive); with HCT-15, 31.1 µM. Besides, the GI50 in the assay with Malme-3M is 24.2 µM (inactive); with TK-10, 29 µM (inactive).
Regarding `CC(C)(Cl)C(Br)CCC(Br)(CCl)C(Cl)CBr` (centres undefined), the GI50 with UO-31, in the assay with A498, with IGROV-1, in the assay with CCRF-CEM, in the assay on Hs-578T and with SR was > 10 µM (inactive) in each case. Besides, the GI50 with M14, in the assay on CAKI-1, in the assay with MDA-N, in the assay with HOP-62, in the assay on SNB-19 and in the assay with PC-3 was > 10 µM (inactive) each time. In addition, the GI50 with NCI/ADR-RES was > 10 µM (inactive); in the assay on KM12 it was > 10 µM (inactive); in the assay with HT-29, > 10 µM (inactive); with HCT-15, over 10 µM; with Malme-3M it was > 10 µM (inactive); in the assay on TK-10 it was > 10 µM (inactive).
Turning to `Cc1ccc(S(=O)(=O)NC(=O)Nc2c(S(N)(=O)=O)cc(S(N)(=O)=O)c(Cl)c2Cl)cc1`, the GI50 in the assay with UO-31, in the assay on A498, with IGROV-1, with CCRF-CEM, with Hs-578T and with SR was > 100 µM (inactive) throughout. For the same compound, the GI50 in the assay with M14, in the assay on CAKI-1, with MDA-N, in the assay with UACC-62, in the assay on SNB-19 and in the assay with PC-3 was > 100 µM (inactive) in each case. Also, the GI50 was > 100 µM (inactive) with NCI/ADR-RES; > 100 µM (inactive) with KM12; > 100 µM (inactive) in the assay with HCT-116; > 100 µM (inactive) with HT-29; over 100 µM in the assay on HCT-15; > 100 µM (inactive) with Malme-3M. In addition, the GI50 in the assay with TK-10 is > 100 µM (inactive).
As to `O=C(/C=C/C=C/c1ccccc1)c1ccccc1`, the GI50 in the assay with UO-31 is 18.3 µM (inactive); in the assay with A498 it was 15.1 µM (inactive); with IGROV-1 it was 16.9 µM (inactive); with Hs-578T, 20 µM (inactive); in the assay with SR, 11.2 µM (inactive); with M14 it was 18 µM (inactive). Besides, the GI50 with CAKI-1 was 17.1 µM (inactive); in the assay on MDA-N, 16.2 µM (inactive); in the assay on UACC-62 it was 17.4 µM (inactive); in the assay on SNB-19, 17.9 µM (inactive); with PC-3 it was 19.1 µM (inactive); in the assay with NCI/ADR-RES, 13.8 µM (inactive). The GI50 is 14.3 µM (inactive) with KM12; 17.6 µM (inactive) with HCT-116; 16.2 µM (inactive) in the assay with HT-29; 12.2 µM in the assay on HCT-15; 10 µM (inactive) with Malme-3M; 19.9 µM (inactive) in the assay on TK-10.
For `N=C(N)NS(=O)(=O)c1ccc(NC(=O)c2cccc3c(NNc4ccc(C(=O)O)cc4)c4ccccc4nc23)cc1`, the GI50 was 32.7 µM (inactive) in the assay with UO-31; 24.4 µM (inactive) with A498; > 100 µM (inactive) with IGROV-1; 25.8 µM (inactive) in the assay with CCRF-CEM; > 100 µM (inactive) in the assay on Hs-578T; 33.5 µM (inactive) in the assay on SR. For the same compound, the GI50 with M14 was > 100 µM (inactive); in the assay on CAKI-1 it was > 100 µM (inactive); in the assay on MDA-N, > 100 µM (inactive); with HOP-62, > 100 µM (inactive); in the assay with UACC-62 it was 70.1 µM (inactive); in the assay on SNB-19 it was 57.8 µM (inactive). The GI50 was 46.3 µM (inactive) with PC-3; > 100 µM (inactive) in the assay on NCI/ADR-RES; 45.2 µM (inactive) in the assay with KM12; 59 µM (inactive) with HCT-116; 41.4 µM (inactive) in the assay on HT-29; over 100 µM in the assay on HCT-15. The values for the GI50 with Malme-3M and in the assay on TK-10 were 93.1 µM (inactive) and > 100 µM (inactive), respectively.
In the case of `CC1CN(CCO)CC(C)O1` (centres undefined), the GI50 in the assay with UO-31, with A498, in the assay with IGROV-1, with CCRF-CEM, in the assay with Hs-578T and in the assay with SR was > 100 µM (inactive) in each case. In addition, the GI50 in the assay on M14, in the assay on CAKI-1, in the assay on MDA-N, in the assay on HOP-62, with UACC-62 and with SNB-19 was > 100 µM (inactive) in each case. The GI50 is > 100 µM (inactive) in the assay on PC-3; > 100 µM (inactive) in the assay on NCI/ADR-RES; > 100 µM (inactive) in the assay on KM12; > 100 µM (inactive) in the assay with HCT-116; > 100 µM (inactive) in the assay on HT-29; over 100 µM in the assay with HCT-15. In addition, the GI50 with Malme-3M and in the assay on TK-10 was > 100 µM (inactive) each time.
Consider `CSc1c(C(=O)Nc2ccc(Cl)cc2)c(N)nn1-c1ccccc1`, for which the GI50 is > 44.8 µM (inactive) in the assay on UO-31; > 35.3 µM (inactive) in the assay with A498; > 100 µM (inactive) in the assay with IGROV-1; > 100 µM (inactive) in the assay with CCRF-CEM; > 28.2 µM (inactive) in the assay with Hs-578T; > 100 µM (inactive) in the assay with SR. Also, the GI50 is > 100 µM (inactive) in the assay with M14; > 100 µM (inactive) in the assay with CAKI-1; > 100 µM (inactive) with MDA-N; 80 µM (inactive) with HOP-62; > 100 µM (inactive) with UACC-62; > 100 µM (inactive) with SNB-19. Further, the GI50 is > 100 µM (inactive) with PC-3; > 58.7 µM (inactive) in the assay on NCI/ADR-RES; > 100 µM (inactive) in the assay with KM12; > 100 µM (inactive) with HCT-116; > 100 µM (inactive) with HT-29; over 100 µM with HCT-15. Also, the GI50 in the assay on Malme-3M is > 100 µM (inactive); in the assay with TK-10, > 38.9 µM (inactive).
For the compound `C(/c1ccco1)=c1/nc(-c2ccccc2)n2c1nc1ccccc12`, the GI50 was 67 µM (inactive) with UO-31; > 100 µM (inactive) in the assay with A498; 11.3 µM (inactive) with IGROV-1; 16.6 µM (inactive) in the assay on CCRF-CEM; 49.1 µM (inactive) in the assay on Hs-578T; 11.4 µM (inactive) in the assay on SR. Besides, the GI50 with M14 was 22.6 µM (inactive); in the assay with CAKI-1, 5.51 µM (inactive); in the assay with MDA-N, 17.6 µM (inactive); in the assay on HOP-62, 2.05 µM (inactive); in the assay with UACC-62 it was 63.1 µM (inactive); with SNB-19 it was > 100 µM (inactive). The GI50 with PC-3 was 1.04 µM (active); in the assay on NCI/ADR-RES it was 23.4 µM (inactive); in the assay on KM12 it was 11.2 µM (inactive); in the assay with HCT-116, 15.5 µM (inactive); with HT-29, 26.6 µM (inactive); in the assay with HCT-15, 97.3 µM. The values for the GI50 in the assay with Malme-3M and with TK-10 were 16.4 µM (inactive) and 34.8 µM (inactive), respectively.
Regarding `Cc1c2oc(=O)c(C#N)cc2c2ccccn12`, the GI50 is 60.7 µM (inactive) with UO-31; > 100 µM (inactive) with A498; > 100 µM (inactive) in the assay with IGROV-1; > 100 µM (inactive) in the assay on CCRF-CEM; > 100 µM (inactive) in the assay with Hs-578T; > 100 µM (inactive) with SR. Further, the GI50 is 70.1 µM (inactive) in the assay on M14; 62.8 µM (inactive) in the assay with CAKI-1; > 100 µM (inactive) in the assay on MDA-N; > 100 µM (inactive) in the assay with UACC-62; > 100 µM (inactive) in the assay with SNB-19; > 100 µM (inactive) in the assay with PC-3. Also, the GI50 was > 100 µM (inactive) in the assay on NCI/ADR-RES; 27.6 µM (inactive) in the assay on KM12; 37.6 µM (inactive) in the assay on HCT-116; > 100 µM (inactive) in the assay with HT-29; 89.9 µM in the assay on HCT-15; 97.3 µM (inactive) in the assay on Malme-3M. Moreover, the GI50 with TK-10 is > 100 µM (inactive).

For the origin of these results see ChEMBL document CHEMBL1201862, “PubChem BioAssay data set” (2004).
